25 compounds from patent publication US7109243B2 (IRM LLC, priority 2003, dated 2006) can be followed below.

One may read the Ki as the dissociation constant of the complex between target and ligand, obtained from inhibition or displacement.

SMILES strings stand for the structures. Where only a bound is given, the exact number is not on record here.

For one test, the target named is T1, Cathepsin K (Homo sapiens, UniProt P43235).
T1 sequence (P43235 115-329): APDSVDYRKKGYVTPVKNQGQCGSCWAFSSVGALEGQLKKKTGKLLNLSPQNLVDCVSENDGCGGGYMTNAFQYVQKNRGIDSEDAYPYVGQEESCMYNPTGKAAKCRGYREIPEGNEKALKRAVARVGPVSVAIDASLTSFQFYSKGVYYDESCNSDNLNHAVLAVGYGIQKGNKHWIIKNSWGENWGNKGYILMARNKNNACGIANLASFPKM
The test is described as follows: Cathepsin K inhibition assay (fluorogenic peptide substrate); selectivity ratio vs cathepsin S. In kind it is biochemical. The following applies: ratio of cathepsin K inhibition constant to cathepsin S inhibition constant; Table II. The gist of the method: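 Fluorogenic kinetic assay, started with acetyl-Lys-His-Pro-Lys-aminocarbamoylcoumarin at 40 μM final, hydrolysis followed at ex 380/em 450 nm. Apparent inhibition constants from progress curves, converted to competitive inhibition constants. Selectivity expressed as isozyme inhibition constant divided by cathepsin S inhibition constant.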

A further test deals with Cathepsin S (Homo sapiens, UniProt P25774). The test can be described thus: Cathepsin S inhibition assay (fluorogenic peptide substrate). The format is biochemical. The following applies: Table II, compounds of Formula I; read-out: Ki Cat. S. The procedure, abridged: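 Ki values come from nonlinear fitting of inhibited hydrolysis rates, taking free and total inhibitor concentrations as equal. Rates measured as rising fluorescence at 380/450 nm after reaction start with 50 μM final acetyl-HPVK-aminocarbamoylcoumarin.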
Cathepsin S, sequence (P25774 115-331, species assumed): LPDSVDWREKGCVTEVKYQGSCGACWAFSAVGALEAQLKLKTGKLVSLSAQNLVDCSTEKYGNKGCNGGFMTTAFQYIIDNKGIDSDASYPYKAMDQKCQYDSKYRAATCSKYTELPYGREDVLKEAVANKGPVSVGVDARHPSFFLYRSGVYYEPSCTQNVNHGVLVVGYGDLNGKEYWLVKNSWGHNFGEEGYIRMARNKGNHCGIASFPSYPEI

As to `O=C(N[C@@H](CC1CCCCC1)C(=O)NCCNc1ccc(F)cc1)c1ccc(-c2ccc(F)cc2)o1` [Compound 322, 5-(4-Fluoro-phenyl)-furan-2-carboxylic acid (S)-{2-cyclohexyl-1-[2-(4-fluoro-phenylamino)-ethylcarbamoyl]-ethyl}-amide], the “Selectivity for Cat. S over Cat. K” value on Cathepsin K is listed as “++ (++, >100)”. On Cathepsin S, the Ki was below 100 nM.

Take `COc1ccc(NCCNC(=O)[C@H](CC2CCCCC2)NC(=O)c2ccc(C#N)cc2)cc1` [Compound 121, (S)-4-Cyano-N-{2-cyclohexyl-1-[2-(4-methoxy-phenylamino)-ethylcarbamoyl]-ethyl}-benzamide]: on Cathepsin K, the “Selectivity for Cat. S over Cat. K” value is listed as “+ (+, >10)”. The Ki on Cathepsin S is below 100 nM.

`COc1ccc(NCCNC(=O)[C@H](Cc2ccccc2)NC(=O)c2ccncc2)cc1` [Compound 64, (S)-N-{1-[2-(4-Methoxy-phenylamino)-ethylcarbamoyl]-2-phenyl-ethyl}-isonicotinamide]: on Cathepsin K, the “Selectivity for Cat. S over Cat. K” value was “+ (+, >10)”. Further, the inhibition constant Ki on Cathepsin S was below 10000 nM.

`COc1ccc(NCCNC(=O)[C@H](CC2CCCCC2)NC(=O)C2(c3ccccc3)CC2)cc1` [Compound 158, (S)-1-Phenyl-cyclopropanecarboxylic acid {2-cyclohexyl-1-[2-(4-methoxy-phenylamino)-ethylcarbamoyl]-ethyl}-amide]: the “Selectivity for Cat. S over Cat. K” value on Cathepsin K is listed as “++ (++, >100)”. Further, the Ki at Cathepsin S is below 100 nM.

`CS(=O)(=O)c1ccc(C(=O)N[C@@H](CC2CCCCC2)C(=O)NCCNc2ccc(OC(F)(F)F)cc2)cc1` [Compound 19, N-(S)-{2-cyclohexyl-1-[2-(4-trifluoromethoxy-phenylamino)-ethylcarbamoyl]-ethyl}-4-methanesulfonyl-benzamide]: the “Selectivity for Cat. S over Cat. K” value on Cathepsin K is on record as “+ (+, >10)”. Besides, the Ki on Cathepsin S was below 1000 nM.

`O=C(Cc1ccc(F)c(F)c1)N[C@@H](CC1CCCCC1)C(=O)NCCNc1ccc(F)cc1` [Compound 99, 3-Cyclohexyl-2-(S)-[2-(3,4-difluoro-phenyl)-acetylamino]-N-[2-(4-fluoro-phenylamino)-ethyl]-propionamide]: the “Selectivity for Cat. S over Cat. K” value at Cathepsin K was “++ (++, >100)”. The Ki on Cathepsin S is below 100 nM.

`O=C(Cc1cccc(F)c1)N[C@@H](CC1CCCCC1)C(=O)NCCNc1ccc(F)cc1` [Compound 260, 3-Cyclohexyl-2-(S)-[2-(3-fluoro-phenyl)-acetylamino]-N-[2-(4-fluoro-phenylamino)-ethyl]-propionamide]: the “Selectivity for Cat. S over Cat. K” value on Cathepsin K was “++ (++, >100)”. At Cathepsin S, the inhibitory constant (Ki) is below 100 nM.

On to `COc1ccc(NCCNC(=O)[C@H](CC2CCCCC2)NC(=O)c2ccccc2F)cc1` [Compound 145, (S)-N-{2-Cyclohexyl-1-[2-(4-methoxy-phenylamino)-ethylcarbamoyl]-ethyl}-2-fluoro-benzamide], for which, on Cathepsin K, the “Selectivity for Cat. S over Cat. K” value was “+++ (+++, >1000)”. The Ki on Cathepsin S was below 100 nM.

Regarding `O=C(N[C@@H](CC1CCCCC1)C(=O)NCCNc1ccc(OC(F)(F)F)cc1)c1ccc(-c2ccc(OC(F)(F)F)cc2)o1` [Compound 215, (S)-5-(4-Trifluoromethoxy-phenyl)-furan-2-carboxylic acid {2-cyclohexyl-1-[2-(4-trifluoromethoxy-phenylamino)-ethylcarbamoyl]-ethyl}-amide], at Cathepsin K, the “Selectivity for Cat. S over Cat. K” value is recorded as “+++ (+++, >1000)”. Besides, the Ki at Cathepsin S is below 100 nM.

Take `COc1ccc(NCCNC(=O)[C@H](CC2CCCCC2)NC(=O)c2nc(C)oc2C(F)(F)F)cc1` [Compound 190, (S)-2-Methyl-5-trifluoromethyl-oxazole-4-carboxylic acid {2-cyclohexyl-1-[2-(4-methoxy-phenylamino)-ethylcarbamoyl]-ethyl}-amide]: on Cathepsin K, the “Selectivity for Cat. S over Cat. K” value is reported as “+++ (+++, >1000)”. In addition, the Ki on Cathepsin S was below 100 nM.

Turning to `O=C(N[C@@H](CC1CCCCC1)C(=O)NCCNc1ccc(OC(F)(F)F)cc1)c1ccoc1` [Compound 26], at Cathepsin K, the “Selectivity for Cat. S over Cat. K” value is reported as “++ (++, >100)”. For the same compound, the Ki at Cathepsin S was below 100 nM.

As for `O=C(N[C@@H](CC1CCCCC1)C(=O)NCCNc1ccc(F)cc1)c1ccc(-c2cccc(C(F)(F)F)c2)o1` [Compound 85, 5-(3-Trifluoromethyl-phenyl)-furan-2-carboxylic acid (S)-{2-cyclohexyl-1-[2-(4-fluoro-phenylamino)-ethylcarbamoyl]-ethyl}-amide], at Cathepsin K, the “Selectivity for Cat. S over Cat. K” value is “++ (++, >100)”. Further, the Ki at Cathepsin S was below 100 nM.

For `COc1ccc(NCCNC(=O)[C@H](Cc2ccccc2)NC(=O)c2cccc(C)c2Cl)cc1` [Compound 16, (S)-2-Chloro-N-{1-[2-(4-methoxy-phenylamino)-ethylcarbamoyl]-2-phenyl-ethyl}-3-methyl-benzamide], the “Selectivity for Cat. S over Cat. K” value at Cathepsin K is “+ (+, >10)”. Besides, the Ki on Cathepsin S was below 1000 nM.

`COc1ccc(NCCNC(=O)[C@@H](NC(=O)c2cccc(C)c2)C(C)OCc2ccccc2)cc1` (stereo partly drawn) [Compound 259, (S)-N-{2-Benzyloxy-1-[2-(4-methoxy-phenylamino)-ethylcarbamoyl]-propyl}-3-methyl-benzamide]: the “Selectivity for Cat. S over Cat. K” value at Cathepsin K is given as “++ (++, >100)”. On Cathepsin S, the Ki is below 1000 nM.

With `Cc1nc(-c2ccc(C(=O)N[C@@H](CC3CCCCC3)C(=O)NCCNc3ccc(OC(F)(F)F)cc3)cc2)no1` [Compound 27], the “Selectivity for Cat. S over Cat. K” value at Cathepsin K is “+++ (+++, >1000)”. Besides, the Ki on Cathepsin S was below 100 nM.

As for `COc1ccc(NCCNC(=O)[C@H](CC2CCCCC2)NC(=O)c2cnn(-c3ccc(OC)cc3)c2C)cc1` [Compound 162, (S)-1-(4-Methoxy-phenyl)-5-methyl-1H-pyrazole-4-carboxylic acid {2-cyclohexyl-1-[2-(4-methoxy-phenylamino)-ethylcarbamoyl]-ethyl}-amide], at Cathepsin K, the “Selectivity for Cat. S over Cat. K” value was “+ (+, >10)”. For the same compound, the Ki at Cathepsin S was below 100 nM.

As for `COc1ccc(NCCNC(=O)[C@H](Cc2ccc(F)c(F)c2)NC(=O)c2cccc(C)c2)cc1` [Compound 237, (S)-N-{2-(3,4-Difluoro-phenyl)-1-[2-(4-methoxy-phenylamino)-ethylcarbamoyl]-ethyl}-3-methyl-benzamide], the “Selectivity for Cat. S over Cat. K” value at Cathepsin K was “+++ (+++, >1000)”. For the same compound, at Cathepsin S, the Ki is below 100 nM.

With `COc1ccc(NCCNC(=O)[C@H](CCC2CCCCC2)NC(=O)c2cc3cc(F)ccc3[nH]2)cc1` [Compound 132, (S)-5-Fluoro-1H-indole-2-carboxylic acid {3-cyclohexyl-1-[2-(4-methoxy-phenylamino)-ethylcarbamoyl]-propyl}-amide], the “Selectivity for Cat. S over Cat. K” value on Cathepsin K is reported as “++ (++, >100)”. Also, at Cathepsin S, the Ki was below 1000 nM.

As for `COc1ccc(NCCNC(=O)[C@H](Cc2ccc(-c3cc(OC)ccc3OC)cc2)NC(=O)c2cccc(C)c2)cc1` [Compound 285, (S)-N-{2-(2′,5′-Dimethoxy-biphenyl-4-yl)-1-[2-(4-methoxy-phenylamino)-ethylcarbamoyl]-ethyl}-3-methyl-benzamide], the “Selectivity for Cat. S over Cat. K” value on Cathepsin K is “++ (++, >100)”. The Ki at Cathepsin S is below 1000 nM.

Take `O=C(N[C@@H](CC1CCCCC1)C(=O)NCCNc1ccc(OC(F)(F)F)cc1)c1ccc(-c2ccccc2C(F)(F)F)o1` [Compound 219, (S)-5-(2-Trifluoromethyl-phenyl)-furan-2-carboxylic acid {2-cyclohexyl-1-[2-(4-trifluoromethoxy-phenylamino)-ethylcarbamoyl]-ethyl}-amide]: at Cathepsin K, the “Selectivity for Cat. S over Cat. K” value is on record as “++ (++, >100)”. The Ki at Cathepsin S is below 100 nM.

Take `O=C(Cc1cc(F)ccc1F)N[C@@H](CC1CCCCC1)C(=O)NCCNc1ccc(F)cc1` [Compound 95, 3-Cyclohexyl-2-(S)-[2-(2,5-difluorophenyl)-acetylamino]-N-[2-(4-fluoro-phenylamino)-ethyl]-propionamide]: at Cathepsin K, the “Selectivity for Cat. S over Cat. K” value is given as “++ (++, >100)”. Besides, the Ki on Cathepsin S is below 100 nM.

With `COc1ccc(NCCNC(=O)[C@H](Cc2c[nH]c3ccccc23)NC(=O)c2cccc(C)c2)cc1` [Compound 257, (S)-N-{2-(1H-Indol-3-yl)-1-[2-(4-methoxy-phenylamino)-ethylcarbamoyl]-ethyl}-3-methyl-benzamide], at Cathepsin K, the “Selectivity for Cat. S over Cat. K” value is on record as “+++ (+++, >1000)”. Also, at Cathepsin S, the Ki is below 100 nM.

Regarding `O=C(N[C@@H](CC1CCCCC1)C(=O)NCCNc1ccc(OC(F)(F)F)cc1)c1ccc(-c2ccccc2)o1` [Compound 65, 5-Phenyl-furan-2-carboxylic acid (S)-{2-cyclohexyl-1-[2-(4-trifluoromethoxy-phenylamino)-ethylcarbamoyl]-ethyl}-amide], on Cathepsin K, the “Selectivity for Cat. S over Cat. K” value is “++ (++, >100)”. For the same compound, the Ki on Cathepsin S is below 100 nM.

Turning to `COc1ccc(NCCNC(=O)C(NC(=O)c2cccc(C)c2)c2cccc(Cl)c2Cl)cc1` (centres unmarked) [Compound 223, N-{(2,3-Dichloro-phenyl)-[2-(4-methoxy-phenylamino)-ethylcarbamoyl]-methyl}-3-methyl-benzamide], on Cathepsin K, the “Selectivity for Cat. S over Cat. K” value was “++ (++, >100)”. Moreover, the Ki at Cathepsin S is below 1000 nM.

For `COc1ccc(NCCNC(=O)[C@H](Cc2ccc(Oc3ccc(N(C)C)cc3)cc2)NC(=O)c2cccc(C)c2)cc1` [Compound 33, (S)-N-{2-[4-(4-Dimethylamino-phenoxy)-phenyl]-1-[2-(4-methoxy-phenylamino)-ethylcarbamoyl]-ethyl}-3-methyl-benzamide], the “Selectivity for Cat. S over Cat. K” value at Cathepsin K is on record as “+ (+, >10)”. At Cathepsin S, the Ki was below 10000 nM.
